# Reference: PubChem BioAssay (NCI)
#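 Compound exposure: 48 hours, 5 concentrations, 96-well plates. TGI denotes the concentration required for complete inhibition of growth.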
# Tests used:
# Experiment in all cases: DTP human tumour cell line panel, 48 h
# 786-0 renal = tested on: 786-0 renal
# A498 renal = tested on: A498 renal
# A549 NSCLC = tested on: A549 NSCLC
# ACHN renal = tested on: ACHN renal
# BT-549 breast = tested on: BT-549 breast
# CAKI-1 renal = tested on: CAKI-1 renal
# CCRF-CEM leukemia = tested on: CCRF-CEM leukemia
# COLO 205 colon = tested on: COLO 205 colon
# DLD-1 colon = tested on: DLD-1 colon
# DMS 114 small cell lung = tested on: DMS 114 small cell lung
# DMS 273 small cell lung = tested on: DMS 273 small cell lung
# DU-145 prostate = tested on: DU-145 prostate
# EKVX NSCLC = tested on: EKVX NSCLC
# HCC-2998 colon = tested on: HCC-2998 colon
# HCT-116 colon = tested on: HCT-116 colon
# HCT-15 colon = tested on: HCT-15 colon
# HL-60(TB) leukemia = tested on: HL-60(TB) leukemia
# HOP-18 NSCLC = tested on: HOP-18 NSCLC
# HOP-62 NSCLC = tested on: HOP-62 NSCLC
# HOP-92 NSCLC = tested on: HOP-92 NSCLC
# HS 578T breast = tested on: HS 578T breast
# HT29 colon = tested on: HT29 colon
# IGROV1 ovarian = tested on: IGROV1 ovarian
# K-562 leukemia = tested on: K-562 leukemia
# KM12 colon = tested on: KM12 colon
# KM20L2 colon = tested on: KM20L2 colon
# LOX IMVI melanoma = tested on: LOX IMVI melanoma
# LXFL 529 NSCLC = tested on: LXFL 529 NSCLC
# M14 melanoma = tested on: M14 melanoma
# M19-MEL melanoma = tested on: M19-MEL melanoma
# MALME-3M melanoma = tested on: MALME-3M melanoma
# MDA-MB-231 breast = tested on: MDA-MB-231 breast
# MDA-MB-435 = tested on: MDA-MB-435
# MDA-N = tested on: MDA-N
# MOLT-4 leukemia = tested on: MOLT-4 leukemia
# NCI-H226 lung = tested on: NCI-H226 lung
# NCI-H23 lung = tested on: NCI-H23 lung
# NCI-H460 lung = tested on: NCI-H460 lung
# NCI-H522 lung = tested on: NCI-H522 lung
# NCI/ADR-RES ovarian = tested on: NCI/ADR-RES ovarian
# OVCAR-3 ovarian = tested on: OVCAR-3 ovarian
# OVCAR-4 ovarian = tested on: OVCAR-4 ovarian
# OVCAR-5 ovarian = tested on: OVCAR-5 ovarian
# OVCAR-8 ovarian = tested on: OVCAR-8 ovarian
# PC-3 prostate = tested on: PC-3 prostate
# RPMI-8226 leukemia = tested on: RPMI-8226 leukemia
# RXF 393 renal = tested on: RXF 393 renal
# RXF-631 renal = tested on: RXF-631 renal
# SF-268 CNS = tested on: SF-268 CNS
# SF-295 CNS = tested on: SF-295 CNS
# SF-539 CNS = tested on: SF-539 CNS
# SK-MEL-2 melanoma = tested on: SK-MEL-2 melanoma
# SK-MEL-28 melanoma = tested on: SK-MEL-28 melanoma
# SK-MEL-5 melanoma = tested on: SK-MEL-5 melanoma
# SK-OV-3 ovarian = tested on: SK-OV-3 ovarian
# SN12C renal = tested on: SN12C renal
# SNB-19 CNS = tested on: SNB-19 CNS
# SNB-75 CNS = tested on: SNB-75 CNS
# SNB-78 CNS = tested on: SNB-78 CNS
# SR leukemia = tested on: SR leukemia
# SW-620 colon = tested on: SW-620 colon
# T-47D breast = tested on: T-47D breast
# TK-10 renal = tested on: TK-10 renal
# U251 CNS = tested on: U251 CNS
# UACC-257 melanoma = tested on: UACC-257 melanoma
# UACC-62 melanoma = tested on: UACC-62 melanoma
# UO-31 renal = tested on: UO-31 renal
# XF 498 CNS = tested on: XF 498 CNS
smiles,measurement,setting,value
C=C(CN(C)C)C(=O)c1ccccc1,TGI,786-0 renal,13.5 µM
same,TGI,A498 renal,41.7 µM
same,TGI,A549 NSCLC,53 µM
same,TGI,ACHN renal,7.32 µM
same,TGI,BT-549 breast,45 µM
same,TGI,CAKI-1 renal,16.8 µM
same,TGI,CCRF-CEM leukemia,3.17 µM
same,TGI,COLO 205 colon,3.03 µM
same,TGI,DLD-1 colon,11.5 µM
same,TGI,DMS 114 small cell lung,11.1 µM
same,TGI,DMS 273 small cell lung,39.2 µM
same,TGI,DU-145 prostate,30.2 µM
same,TGI,EKVX NSCLC,46.3 µM
same,TGI,HCC-2998 colon,32.7 µM
same,TGI,HCT-116 colon,16.7 µM
same,TGI,HCT-15 colon,28 µM
same,TGI,HL-60(TB) leukemia,> 20.8 µM
same,TGI,HOP-18 NSCLC,14.8 µM
same,TGI,HOP-62 NSCLC,> 58.3 µM
same,TGI,HOP-92 NSCLC,5.79 µM
same,TGI,HS 578T breast,> 100 µM
same,TGI,HT29 colon,24.2 µM
same,TGI,IGROV1 ovarian,36.3 µM
same,TGI,K-562 leukemia,14.3 µM
same,TGI,KM12 colon,42.2 µM
same,TGI,KM20L2 colon,39.8 µM
same,TGI,LOX IMVI melanoma,15.4 µM
same,TGI,LXFL 529 NSCLC,5.64 µM
same,TGI,M14 melanoma,7.54 µM
same,TGI,M19-MEL melanoma,22.9 µM
same,TGI,MALME-3M melanoma,11.1 µM
same,TGI,MDA-MB-231 breast,31.4 µM
same,TGI,MDA-MB-435,27.3 µM
same,TGI,MDA-N,28.1 µM
same,TGI,MOLT-4 leukemia,15.3 µM
same,TGI,NCI-H226 lung,36 µM
same,TGI,NCI-H23 lung,45 µM
same,TGI,NCI-H460 lung,37.5 µM
same,TGI,NCI-H522 lung,1.69 µM
same,TGI,NCI/ADR-RES ovarian,> 100 µM
same,TGI,OVCAR-3 ovarian,9.9 µM
same,TGI,OVCAR-4 ovarian,39.3 µM
same,TGI,OVCAR-5 ovarian,30.4 µM
same,TGI,OVCAR-8 ovarian,44.6 µM
same,TGI,PC-3 prostate,30.6 µM
same,TGI,RPMI-8226 leukemia,> 66.3 µM
same,TGI,RXF 393 renal,6.47 µM
same,TGI,RXF-631 renal,48.5 µM
same,TGI,SF-268 CNS,> 58.2 µM
same,TGI,SF-295 CNS,47.4 µM
same,TGI,SF-539 CNS,27.1 µM
same,TGI,SK-MEL-2 melanoma,32.9 µM
same,TGI,SK-MEL-28 melanoma,34.8 µM
same,TGI,SK-MEL-5 melanoma,28.8 µM
same,TGI,SK-OV-3 ovarian,41 µM
same,TGI,SN12C renal,38.7 µM
same,TGI,SNB-19 CNS,53.1 µM
same,TGI,SNB-75 CNS,39.7 µM
same,TGI,SNB-78 CNS,62.6 µM
same,TGI,SR leukemia,> 60.5 µM
same,TGI,SW-620 colon,5.07 µM
same,TGI,T-47D breast,4.93 µM
same,TGI,TK-10 renal,13.4 µM
same,TGI,U251 CNS,35.1 µM
same,TGI,UACC-257 melanoma,27.6 µM
same,TGI,UACC-62 melanoma,30.1 µM
same,TGI,UO-31 renal,19.2 µM
same,TGI,XF 498 CNS,29.9 µM
